Measurements: patent publication US4540682A, “Pharmaceutical peptides, preparation, use and intermediates” (Burroughs Wellcome Co., priority 1983, dated 1985)

Columns and labels:
Male mice (CFLP strain) = experiment: Hotplate test; assay type: in vivo; details: subcutaneous; test repeated 15 mins. after treatment; as free peptide where appropriate; NE = no effect
Text: (§1) (1) Both the hotplate test (Woolfe and MacDonald, J. Pharmacol. Exp. Ther. 80: 300, 1944) and the irritant-induced writhing (stretch) test (Vander Wende and Margolin, Fed. Proc. 15: 494, 1956) are standard in the art for the investigation of analgesic activity. Whereas it is believed that the pain in the latter can be ameliorated either centrally or peripherally, it is thought that that induced in the hotplate test is affected only at the central level.
Male mice (CFLP strain, Hacking and Churchill) were individually placed in a copper-bottomed perspex box suspended in a water bath at 55° C. and observed for signs of discomfort such as shaking or licking the paws, the reaction time (up to a maximum of 30 secs.) being recorded. Groups of five animals then received either a test compound or saline vehicle (0.85%) control by subcutaneous injection, the test being repeated at 15 mins. after treatment. The ED50 figures for the test compounds were calculated from the number of animals having a posttreatment reaction time which was twice the pretreatment figure.

female CD1 mice = experiment: Irritant-induced writhing test, phenylbenzoquinone (PBQ); assay type: in vivo; details: Mus musculus, po, 0.5 h; p.o.; *test compound administered 30 min. prior to PBQ; read-out: (B) Writhing PBQ ED50 p.o.
Text: as §1
(ii) Phenylbenzoquinone (PBQ). This test was carried out in a parallel manner to that employing acetic acid, except that the period over which the writhing/stretching movements were counted began 10 mins. after administration of the PBQ irritant, the latter being given at a dosage of 2.5 mg/kg and in a dose volume of 10 ml/kg. The ED50 figures for the test compounds were calculated, using linear regression analysis, as the dose in the presence of which only half the number of writhes/stretches was induced compared with the controls.

COc1ccc2c(c1)c(CC(=O)O)c(C)n2C(=O)c1ccc(Cl)cc1 [Indomethacin]
(A) Hotplate ED50 (Male mice (CFLP strain)): NE @ 100

CN1CC[C@]23c4c5ccc(O)c4O[C@H]2[C@@H](O)C=C[C@H]3[C@H]1C5 [Morphine]
ED50 (female CD1 mice): 3.5 mg/kg

CC(C)=CCN1CCC2(C)c3cc(O)ccc3CC1C2C (stereo not drawn) [Pentazocine]
(A) Hotplate ED50 (Male mice (CFLP strain)): NE @ 100
